How the values were obtained:
[1] = test system: HTG22 (DNA, G4) AGGGTTAGGGTTAGGGTTAGGG; assay: SPR, Langmuir kinetic fit; conditions: 100 mM KCl; 50 mM Tris-HCl, pH 7.4, 25 °C; highest concentration 20 μM
[2] = test system: F21T (DNA, G4) GGGTTAGGGTTAGGGTTAGGG; assay: FRET melting; conditions: 60 mM KCl; 10 mM Tris-HCl, pH 7.4; 0.2 μM DNA; 1 μM compound (Figure S2A)
[3] = test system: HTG21 (DNA, G4) GGGTTAGGGTTAGGGTTAGGG; assay: CD titration; conditions: no added K+ or Na+; 10 mM Tris-HCl, pH 7.4, 25 °C; 5 μM DNA; 0 to 5 mol equiv; induces antiparallel G4
[4] = test system: hairpin duplex DNA (DNA, hairpin) TTTTTTTTTCGAATTCGTTTTTCGAATTCG; assay: SPR, Langmuir kinetic fit; conditions: 100 mM KCl; 50 mM Tris-HCl, pH 7.4, 25 °C; highest concentration 20 μM

For `COc1ccc2cc3[n+](cc2c1NCCCN1CCCC1)CCc1cc2c(cc1-3)OCO2`, the KD [1] was 29 µM.

Work on `COc1ccc2cc3[n+](cc2c1NCCCN1CCCCC1)CCc1cc2c(cc1-3)OCO2` yielded a KD [1] of 149 µM.

`COc1ccc2cc3[n+](cc2c1NCCN1CCCCC1)CCc1cc2c(cc1-3)OCO2` was tested, and the KD [1] was 10.8 µM.

`COc1ccc2cc3[n+](cc2c1NCCO)CCc1cc2c(cc1-3)OCO2` showed a KD [1] of 680 µM.

With `COc1ccc2cc3[n+](cc2c1OC)CCc1cc2c(cc1-3)OCO2` the binding [2] was “weak” and the KD [1] was 170 µM.

For `COc1ccc2cc3[n+](cc2c1OCCCCCCCl)CCc1cc2c(cc1-3)OCO2`, the binding [3] was “yes” and the binding [1] was “yes”.

In the case of `COc1ccc2cc3[n+](cc2c1OCCCNC(=O)C(N)CCCCN)CCc1cc2c(cc1-3)OCO2` (stereo not shown), the KD [1] is reported as 7.57 µM and the KD [4] is reported as 28900 µM.

For `COc1ccc2cc3[n+](cc2c1OCCCNC(=O)C(N)CCCNC(=N)N)CCc1cc2c(cc1-3)OCO2` (stereo not shown), the KD [1] was 10.5 µM and the KD [4] was 13900 µM.

Work on `COc1ccc2cc3[n+](cc2c1OCCN)CCc1cc2c(cc1-3)OCO2` yielded a KD [1] of 133 µM.

From PMC4742130 (2015)
